≈ marks a conversion by molar mass, not a printed value. Calls of active or inactive are those of the source. The calls are words filed in the database; no cut-off is given here.
How the values were obtained:
Bacillus subtilis = test: Antibacterial activity against Bacillus subtilis ATCC 6633; type: functional
Escherichia coli [1] = test: Antibacterial activity against Escherichia coli K-12; type: functional, organism-based
[2] = system: Staphylococcus epidermidis; test: Antibacterial activity against Staphylococcus epidermidis; type: functional
Staphylococcus aureus [3] = test: Antibacterial activity against Staphylococcus aureus ATCC 31890; type: functional
Staphylococcus aureus [4] = test: Bacteriostatic activity against Staphylococcus aureus after 6 hrs; type: functional, organism-based
Escherichia coli [5] = test: Antibacterial activity against TolC-deficient Escherichia coli; type: functional

MIC (Bacillus subtilis) | MIC [2] | MIC (Staphylococcus aureus [3]) | MIC (Escherichia coli [5]) | Compound | Activity (Escherichia coli [1]) | Activity (Staphylococcus aureus [4])
8 µg/mL (≈ 14.3 µM) | > 64 µg/mL | > 64 µg/mL | – | CCCc1ccccc1NC(=O)[C@H](COCc1ccccc1)NC(=O)c1ccc(/C=C2\SC(=S)NC2=O)cc1 | inactive | –
8 µg/mL (≈ 14.7 µM) | > 64 µg/mL | > 64 µg/mL | – | CCCc1ccccc1NC(=O)[C@H](Cc1ccc(O)cc1)NC(=O)c1ccc(/C=C2\SC(=S)NC2=O)cc1 | inactive | –
8 µg/mL (≈ 15.6 µM) | > 64 µg/mL | > 64 µg/mL | – | CCCc1ccccc1NC(=O)[C@H](Cc1ccccc1)NC(=O)c1ccc(/C=C2\SC(=O)NC2=O)cc1 | inactive | –
32 µg/mL (≈ 64.6 µM) | > 64 µg/mL | > 64 µg/mL | – | CCCc1ccccc1NC(=O)[C@H](CC(C)C)NC(=O)c1ccc(/C=C2\SC(=S)NC2=O)cc1 | inactive | –
> 64 µg/mL | > 64 µg/mL | > 64 µg/mL | – | CCCc1ccccc1NC(=O)[C@H](CO)NC(=O)c1ccc(/C=C2\SC(=S)NC2=O)cc1 | inactive | –
> 64 µg/mL | > 64 µg/mL | > 64 µg/mL | – | O=C1NC(=O)/C(=C/c2cccnc2)S1 | inactive | –
> 64 µg/mL | > 64 µg/mL | > 64 µg/mL | – | O=C1NC(=S)S/C1=C\c1ccc(C(=O)O)cc1 | inactive | –
8 µg/mL (≈ 16.7 µM) | > 64 µg/mL | > 64 µg/mL | – | CCCc1ccccc1NC(=O)[C@H](CC(C)C)NC(=O)c1ccc(/C=C2\SC(=O)NC2=O)cc1 | inactive | –
> 64 µg/mL | > 64 µg/mL | > 64 µg/mL | – | O=C1NC(=O)/C(=C/c2ccc(C(=O)O)cc2)S1 | inactive | –
8 µg/mL (≈ 19.3 µM) | > 64 µg/mL | > 64 µg/mL | – | CCCc1ccccc1OC[C@H](O)COc1ccc(/C=C2\SC(=O)NC2=O)cc1 | inactive | –
> 64 µg/mL | > 64 µg/mL | > 64 µg/mL | – | O=C1NC(=O)/C(=C/c2ccccc2)S1 | inactive | –
16 µg/mL (≈ 37.2 µM) | 32 µg/mL (≈ 74.5 µM) | 16 µg/mL (≈ 37.2 µM) | – | CCCc1ccccc1OC[C@H](O)COc1ccc(/C=C2\SC(=S)NC2=O)cc1 | inactive | Active
32 µg/mL (≈ 70.5 µM) | > 64 µg/mL | > 64 µg/mL | – | CCCc1ccccc1NC(=O)[C@H](C)NC(=O)c1ccc(/C=C2\SC(=S)NC2=O)cc1 | inactive | –
> 64 µg/mL | 0.5 µg/mL (≈ 1.84 µM) | 0.5 µg/mL (≈ 1.84 µM) | 8 µg/mL (≈ 29.5 µM) | O=C1NC(=S)S/C1=C\c1ccc2ccccc2c1 | inactive | –
> 64 µg/mL | 16 µg/mL (≈ 75.7 µM) | 16 µg/mL (≈ 75.7 µM) | – | O=C1NC(=S)S/C1=C\c1ccco1 | inactive | –
8 µg/mL (≈ 15.2 µM) | 16 µg/mL (≈ 30.4 µM) | 16 µg/mL (≈ 30.4 µM) | – | CCCc1ccccc1NC(=O)[C@H](COC(C)(C)C)NC(=O)c1ccc(/C=C2\SC(=S)NC2=O)cc1 | inactive | –
> 64 µg/mL | > 64 µg/mL | > 64 µg/mL | – | CCCc1ccccc1NC(=O)[C@H](CO)NC(=O)c1ccc(/C=C2\SC(=O)NC2=O)cc1 | inactive | –
> 64 µg/mL | > 64 µg/mL | > 64 µg/mL | – | CCCc1ccccc1NC(=O)[C@H](Cc1ccccc1)NC(=O)c1ccc(/C=C2\SC(=S)NC2=O)cc1 | inactive | –
> 64 µg/mL | > 64 µg/mL | > 64 µg/mL | – | CCCc1ccccc1NC(=O)[C@H](C)NC(=O)c1ccc(/C=C2\SC(=O)NC2=O)cc1 | inactive | –

— ChEMBL document CHEMBL2016471, “5-benzylidenerhodanine and 5-benzylidene-2-4-thiazolidinedione based antibacterials” (2012)
